Test results reported in patent publication US8623595B2, “Inactivation of reverse transcriptases by azido-diarylpyrimidines” (Photoimmune Biotechnology Inc., priority 2010, dated 2014).
Where two headings read alike, the source gives them in different places.

System: HIV-1
Details: for time within which capacity to inactivate HIV-1 reverse transcriptase was lost / permanence of HIV-1 reverse transcriptase inactivation: 10 nM compound, HIV-1 in MT-2 cells
Protocol: MT-2 cells were contacted with HIV-1 TCID50, and 0, 2, 10, 20, or 50 nM of either DAPY (TMC120-R147681) or azido-DAPY were placed on 50μ/well plates. The plates were placed on ice for 20 minutes and then irradiated at 7.5 cm from a UV light source (UVP lamp model UVGL-25) that provides UV light at a wavelength of 365 nm and an intensity of 1.14 W/cm^2 for a period of 20 minutes. Studies of HIV-1 infected MT-2 cells contacted with DAPY but not UV irradiated, and HIV-1 infected MT-2 cells that were irradiated but not contacted with DAPY or azido-DAPY were also performed.
The inactivation of HIV was evaluated by a reverse transcriptase activity assay as described by Xu et al. (2009). The measurements are provided in counts per minute (cpm).

In the case of `Cc1cc(C)c(Nc2ccnc(Nc3ccc(C#N)cc3)n2)c(C)c1` [DAPY, dapivirine], the “time within which capacity to inactivate HIV-1 reverse transcriptase was lost” value (with UV light treatment) is reported as no more than 16 days, the “permanence of HIV-1 reverse transcriptase inactivation” value (with UV light) is reported as “inability to produce a permanent inactivation” and the “time within which capacity to inactivate HIV-1 reverse transcriptase was lost” value (without UV light treatment) is reported as no more than 16 days. The “permanence of HIV-1 reverse transcriptase inactivation” value (without UV light) was “inability to produce a permanent inactivation” and the “inactivation of HIV-1 in time-exposure studies” value (compound + UV light exposure, time-exposure studies) was “not observed”.
